Assay results reported in paper PMC9506485, “Synthesis and Structure–Activity Relationships for the Anti-Mycobacterial Activity of 3-Phenyl-N-(Pyridin-2-ylmethyl)Pyrazolo[1,5-a]Pyrimidin-7-Amines” (Pharmaceuticals, 2022).
≈ marks a conversion by molar mass, not a printed value.

Tests used:
tuberculosis = system: tuberculosis; set-up: method as in doi:10.1039/C5MD00589B, PMID 35140452; conditions: cited from earlier work
M.tb bacteria = system: M.tb bacteria; set-up: method as in doi:10.1039/C5MD00589B, PMID 35140452; conditions: cited from earlier work
[1] = system: M. smegmatis inverted membrane vesicle; set-up: method as in doi:10.1039/C5MD00589B, PMID 35140452; conditions: M. smegmatis inverted membrane vesicle assay; cited from earlier work
hERG = hERG (Homo sapiens, UniProt Q12809); experiment: hERG channel blockade, manual patch clamp; type: cell-based; conditions: cloned hERG potassium channels, room temperature; for inhibition at 0.3 µM: read-out: hERG % inhib. at 0.3 µM; for inhibition at 1 µM: read-out: hERG % inhib. at 1.0 µM
Procedure: Selected compounds were evaluated for hERG channel blockade (Table 4) by WuXi AppTec (Shanghai) Co., Ltd. This was carried out using cloned hERG potassium channels according to their standard manual patch clamp method. Two concentrations (0.3 and 1.0 µM) were tested (at room temperature), and at least three replicates were obtained for each. Amitryptyline was used as a standard.

[2] = Microsomal stability, human liver microsomes; type: in vitro ADME; conditions: pH 7.4; for microsomal CLint at 1 μM: human liver microsomes, read-out: HLM Clint(mic)
How it was run: (§1)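 Compounds at 1 μM incubated at 37 °C with human or CD-1 mouse liver microsomes (0.5 mg/mL protein) plus NADPH regenerating system in 100 mM phosphate buffer, pH 7.4. Samples taken at 0–60 min, quenched in cold acetonitrile and analysed by LC-MS/MS.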

[3] = system: Mycobacterium tuberculosis (strain H37Rv); experiment: MABA minimum inhibitory concentration assay (aerobic/replicating); type: cell-based; conditions: M.tb H37Rv; for MIC90: Mycobacterium tuberculosis, aerobic/replicating, 90% inhibition of growth
[4] = Microsomal stability, mouse liver microsomes; type: in vitro ADME; conditions: for CLint scaled at 1 μM / half-life at 1 μM: CD-1, mouse, microsomes, pH 7.4; for microsomal CLint at 1 μM: CD-1, pH 7.4, mouse liver microsomes, read-out: MLM Clint(mic)
How it was run: as §1

[5] = system: Mycobacterium tuberculosis (strain H37Rv); experiment: LORA minimum inhibitory concentration assay (low-oxygen/non-replicating); conditions: M.tb H37Rv, 90% inhibition of growth
[6] = system: VERO green monkey kidney cells; experiment: VERO mammalian cell toxicity assay; type: cell-based; conditions: Chlorocebus sabaeus; inhibition of growth of VERO green monkey kidney epithelial cells

hERG, sequence (Q12809 whole entry): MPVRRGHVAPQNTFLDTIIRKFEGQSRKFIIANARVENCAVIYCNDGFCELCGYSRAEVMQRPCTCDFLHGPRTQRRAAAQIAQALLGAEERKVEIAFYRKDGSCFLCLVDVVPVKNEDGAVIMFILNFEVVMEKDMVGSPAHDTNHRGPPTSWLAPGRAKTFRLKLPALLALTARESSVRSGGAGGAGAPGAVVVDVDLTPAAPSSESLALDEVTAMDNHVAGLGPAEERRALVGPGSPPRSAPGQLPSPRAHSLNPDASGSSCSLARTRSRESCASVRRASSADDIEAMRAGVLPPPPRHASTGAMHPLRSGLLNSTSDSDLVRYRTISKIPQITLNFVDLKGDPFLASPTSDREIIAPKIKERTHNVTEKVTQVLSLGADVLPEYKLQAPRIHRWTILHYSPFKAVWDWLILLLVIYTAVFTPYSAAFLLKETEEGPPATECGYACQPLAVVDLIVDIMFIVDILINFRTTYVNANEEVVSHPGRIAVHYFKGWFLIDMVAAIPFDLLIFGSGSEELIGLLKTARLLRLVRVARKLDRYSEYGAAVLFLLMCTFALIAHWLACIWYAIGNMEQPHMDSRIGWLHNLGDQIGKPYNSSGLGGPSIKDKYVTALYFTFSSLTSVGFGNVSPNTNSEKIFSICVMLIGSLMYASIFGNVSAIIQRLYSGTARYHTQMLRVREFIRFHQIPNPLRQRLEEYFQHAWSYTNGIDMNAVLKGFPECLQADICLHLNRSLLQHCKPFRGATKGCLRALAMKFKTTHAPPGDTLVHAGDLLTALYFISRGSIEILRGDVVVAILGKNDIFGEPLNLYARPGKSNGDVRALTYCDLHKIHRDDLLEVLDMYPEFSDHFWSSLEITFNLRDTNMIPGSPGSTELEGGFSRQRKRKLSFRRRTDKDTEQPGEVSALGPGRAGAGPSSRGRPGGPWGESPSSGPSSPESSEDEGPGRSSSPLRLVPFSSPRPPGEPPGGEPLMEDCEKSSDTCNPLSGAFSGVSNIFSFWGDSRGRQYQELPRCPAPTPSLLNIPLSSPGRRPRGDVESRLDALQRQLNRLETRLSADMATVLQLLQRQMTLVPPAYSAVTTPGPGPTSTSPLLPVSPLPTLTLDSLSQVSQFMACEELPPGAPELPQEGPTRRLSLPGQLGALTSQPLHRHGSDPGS

| SMILES | activity in vivo in an acute mouse model of tuberculosis (tuberculosis) | inhibition of M.tb bacteria in culture (M.tb bacteria) | depletion of ATP [1] | inhibition at 0.3 µM (hERG) | inhibition at 1 µM (hERG) | CLint scaled at 1 μM ([2]; human, microsomes) | half-life at 1 μM ([2]; human, microsomes) | microsomal CLint at 1 μM [2] | melting point | MIC90 [3] | CLint scaled at 1 μM [4] | half-life at 1 μM [4] | microsomal CLint at 1 μM [4] | MIC90 LORA [5] | IC50 [6] | half-life at 1 μM ([2]; human/mouse liver microsomes not distinguished, read-out: T½ values (microsomal stability)) | anti-mycobacterial activity in words ([3]; MABA/LORA) |
| --- | --- | --- | --- | --- | --- | --- | --- | --- | --- | --- | --- | --- | --- | --- | --- | --- | --- |
| CN(C)CCOc1ncc(Nc2cc(-c3ccccc3)nc3cc(-c4ccc(F)cc4)nn23)cc1F [Compound 5] | active in vivo | modest inhibitors | modest inhibitors |  |  |  |  |  |  |  |  |  |  |  |  |  |  |
| CN(C)CCOc1ncc(Nc2cc(C(F)(F)F)nc3cc(-c4ccc(F)cc4)nn23)cc1F [Compound 6] | active in vivo | modest inhibitors | modest inhibitors |  |  |  |  |  |  |  |  |  |  |  |  |  |  |
| COc1ccnc(CNc2cc(-c3ccccc3)nc3c(-c4ccc(F)cc4)cnn23)c1 [Compound 63, 3-(4-Fluorophenyl)-N-((4-methoxypyridin-2-yl)methyl)-5-phenylpyrazolo[1,5-a]pyrimidin-7-amine] |  |  |  | 2.3% | 4.6% | < 0.516 L/h/kg | > 2.42 h | < 9.6 µL/min/mg | 205 to 208 °C | 1.9 mg/L (≈ 4.47 µM) | < 2.28 L/h/kg | > 2.42 h | < 9.6 µL/min/mg | 0.5 mg/L (≈ 1.18 µM) | > 32 mg/L |  |  |
| Fc1ccc(-c2cnn3c(NCc4ccccn4)cc(-c4ccccc4)nc23)cc1 [Compound 18, 3-(4-Fluorophenyl)-5-phenyl-N-(pyridin-2-ylmethyl)pyrazolo[1,5-a]pyrimidin-7-amine] |  |  |  | 0.3% | 5% | 0.72 L/h/kg | 1.75 h | 13 µL/min/mg | 191 to 193 °C | 3.8 mg/L (≈ 9.61 µM) | 5.94 L/h/kg | 0.933 h | 25 µL/min/mg | 0.40 mg/L (≈ 1.01 µM) | > 32 mg/L | < 1.42 h | active |
